Measured values published in ChEMBL document CHEMBL3351804, “Development of 2-aryl substituted quinazolin-4(3H)-one, pyrido[4,3-d]pyrimidin-4(3H)-one and pyrido[2,3-d]pyrimidin-4(3H)-one derivatives as microsomal prostaglandin E(2) synthase-1 inhibitors” (Bioorg Med Chem Lett, 2014).

What was measured:
Prostaglandin E synthase [1] = biological target: T1, Prostaglandin E synthase (Canis lupus familiaris, UniProt A0SYQ0); test: Inhibition of mPGES-1 in dog whole blood assessed as inhibition of LPS-induced PGE2 production after overnight incubation
T1 sequence (A0SYQ0 whole entry): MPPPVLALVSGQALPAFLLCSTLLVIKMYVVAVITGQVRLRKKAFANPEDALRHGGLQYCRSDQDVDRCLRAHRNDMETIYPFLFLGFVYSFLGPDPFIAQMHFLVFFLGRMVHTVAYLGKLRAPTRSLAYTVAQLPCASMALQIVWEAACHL

[2] = Stability in guinea pig liver microsomes assessed as compound remaining after 60 mins; type: ADME, Cavia porcellus; details: read-out: Stability
Prostaglandin E synthase [3] = biological target: T2, Prostaglandin E synthase (Homo sapiens, UniProt O14684); test: Inhibition of mPGES-1 in human A549 cells assessed as inhibition of IL-1beta-induced PGE2 production incubated for 30 mins prior to IL-1beta challenge measured after 18 to 24 hrs; type: cell-based
T2 sequence (O14684 whole entry): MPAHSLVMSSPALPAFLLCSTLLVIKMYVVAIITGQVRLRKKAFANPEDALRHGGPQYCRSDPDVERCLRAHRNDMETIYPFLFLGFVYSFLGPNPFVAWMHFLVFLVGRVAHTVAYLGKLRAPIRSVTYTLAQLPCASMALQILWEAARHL

[4] = biological target: T3, Prostacyclin synthase (Homo sapiens) (UniProt Q16647); test: Inhibition of recombinant PGIS (unknown origin) at 10 uM
T3 sequence (whole entry): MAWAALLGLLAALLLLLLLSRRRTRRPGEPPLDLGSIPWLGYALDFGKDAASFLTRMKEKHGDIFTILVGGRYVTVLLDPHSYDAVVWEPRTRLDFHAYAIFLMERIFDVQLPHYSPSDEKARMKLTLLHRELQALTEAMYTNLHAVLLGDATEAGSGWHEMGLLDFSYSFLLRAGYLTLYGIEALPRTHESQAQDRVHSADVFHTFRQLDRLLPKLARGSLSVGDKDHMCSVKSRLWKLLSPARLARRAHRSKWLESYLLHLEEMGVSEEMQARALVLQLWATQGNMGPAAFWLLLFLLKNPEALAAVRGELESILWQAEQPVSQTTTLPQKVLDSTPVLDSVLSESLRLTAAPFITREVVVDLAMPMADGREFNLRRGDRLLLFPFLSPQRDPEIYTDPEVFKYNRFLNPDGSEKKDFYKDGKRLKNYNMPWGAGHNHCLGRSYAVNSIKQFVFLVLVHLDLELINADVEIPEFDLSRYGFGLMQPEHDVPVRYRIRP

[5] = biological target: T4, Prostaglandin G/H synthase 2 (Homo sapiens) (UniProt P35354); test: Inhibition of recombinant COX2 (unknown origin) at 10 uM
T4 sequence (whole entry): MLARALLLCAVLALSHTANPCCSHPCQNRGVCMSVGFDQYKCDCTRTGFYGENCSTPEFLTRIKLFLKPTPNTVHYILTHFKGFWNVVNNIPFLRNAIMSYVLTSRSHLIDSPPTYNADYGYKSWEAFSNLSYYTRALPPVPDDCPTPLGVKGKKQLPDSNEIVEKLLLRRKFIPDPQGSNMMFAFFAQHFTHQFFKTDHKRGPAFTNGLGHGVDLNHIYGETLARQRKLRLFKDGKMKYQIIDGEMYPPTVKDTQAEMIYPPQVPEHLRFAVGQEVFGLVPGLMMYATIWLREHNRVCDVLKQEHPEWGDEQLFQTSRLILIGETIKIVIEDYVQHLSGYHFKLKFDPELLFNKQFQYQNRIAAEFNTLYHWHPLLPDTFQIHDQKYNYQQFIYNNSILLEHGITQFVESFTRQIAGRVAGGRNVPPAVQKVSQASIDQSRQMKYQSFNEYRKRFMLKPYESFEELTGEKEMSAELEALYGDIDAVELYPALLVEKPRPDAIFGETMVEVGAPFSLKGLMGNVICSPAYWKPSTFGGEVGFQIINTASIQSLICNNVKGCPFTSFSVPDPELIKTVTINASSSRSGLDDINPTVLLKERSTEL

[6] = Stability in human liver microsomes assessed as compound remaining after 60 mins; type: ADME; details: read-out: Stability
Prostaglandin E synthase [7] = biological target: T2, Prostaglandin E synthase; test: Inhibition of mPGES-1 in human whole blood assessed as inhibition of LPS-induced PGE2 production after overnight incubation
[8] = biological target: T5, Prostaglandin E synthase 3 (Homo sapiens) (UniProt Q15185); test: Inhibition of recombinant cPGES (unknown origin) at 10 uM
T5 sequence (whole entry): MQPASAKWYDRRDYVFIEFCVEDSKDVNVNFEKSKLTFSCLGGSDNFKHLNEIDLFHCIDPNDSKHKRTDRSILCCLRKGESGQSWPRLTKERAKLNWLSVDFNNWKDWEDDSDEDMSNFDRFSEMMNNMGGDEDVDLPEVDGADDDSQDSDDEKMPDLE

[9] = biological target: Prostaglandin F2-alpha receptor (Homo sapiens) (UniProt P43088); test: Induction of recombinant PGF2-alpha (unknown origin) at 10 uM
Prostaglandin F2-alpha receptor (Homo sapiens), sequence (P43088 whole entry): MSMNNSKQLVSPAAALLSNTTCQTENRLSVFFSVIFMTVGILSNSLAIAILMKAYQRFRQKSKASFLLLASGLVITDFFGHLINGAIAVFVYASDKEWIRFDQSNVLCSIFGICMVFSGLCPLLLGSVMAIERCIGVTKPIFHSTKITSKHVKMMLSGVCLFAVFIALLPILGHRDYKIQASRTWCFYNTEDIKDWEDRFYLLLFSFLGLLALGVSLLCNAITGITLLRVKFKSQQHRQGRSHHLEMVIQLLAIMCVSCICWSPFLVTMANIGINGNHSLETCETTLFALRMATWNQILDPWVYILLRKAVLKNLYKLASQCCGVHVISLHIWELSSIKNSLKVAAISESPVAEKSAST

[10] = biological target: T6, Cytosolic phospholipase A2 (Homo sapiens) (UniProt P47712); test: Inhibition of cPLA2 (unknown origin) at 10 uM
T6 sequence (whole entry): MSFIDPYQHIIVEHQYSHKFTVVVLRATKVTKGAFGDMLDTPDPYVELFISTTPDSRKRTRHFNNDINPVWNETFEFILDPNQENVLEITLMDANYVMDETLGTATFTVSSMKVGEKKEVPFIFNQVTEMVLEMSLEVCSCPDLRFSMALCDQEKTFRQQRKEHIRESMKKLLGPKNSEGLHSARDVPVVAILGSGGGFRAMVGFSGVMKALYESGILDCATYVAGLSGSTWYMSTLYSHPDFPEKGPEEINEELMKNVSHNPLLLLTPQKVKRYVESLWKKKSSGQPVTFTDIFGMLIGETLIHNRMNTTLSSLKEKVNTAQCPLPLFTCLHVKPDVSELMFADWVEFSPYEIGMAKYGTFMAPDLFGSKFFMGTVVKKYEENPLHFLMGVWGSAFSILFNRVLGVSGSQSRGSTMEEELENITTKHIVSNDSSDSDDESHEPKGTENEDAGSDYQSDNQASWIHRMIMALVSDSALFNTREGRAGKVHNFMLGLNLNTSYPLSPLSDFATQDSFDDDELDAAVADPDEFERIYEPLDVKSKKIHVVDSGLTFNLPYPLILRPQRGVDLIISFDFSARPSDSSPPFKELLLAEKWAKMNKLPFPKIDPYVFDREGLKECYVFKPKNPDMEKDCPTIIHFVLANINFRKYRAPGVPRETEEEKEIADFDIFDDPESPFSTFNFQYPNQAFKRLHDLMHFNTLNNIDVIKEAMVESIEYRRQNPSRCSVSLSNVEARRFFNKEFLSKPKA

[11] = Tmax in Sprague-Dawley rat at 10 mg/kg, po; type: ADME, organism-based; parameters: dose 10 mg/kg, route oral; details: in vivo
[12] = Cmax in Sprague-Dawley rat at 10 mg/kg, po; type: ADME, organism-based; parameters: dose 10 mg/kg, route oral; details: in vivo
[13] = biological target: Prostaglandin E synthase 2 (Homo sapiens) (UniProt Q9H7Z7); test: Inhibition of recombinant mPGES-2 (unknown origin) at 10 uM
Prostaglandin E synthase 2 (Homo sapiens), sequence (Q9H7Z7 whole entry): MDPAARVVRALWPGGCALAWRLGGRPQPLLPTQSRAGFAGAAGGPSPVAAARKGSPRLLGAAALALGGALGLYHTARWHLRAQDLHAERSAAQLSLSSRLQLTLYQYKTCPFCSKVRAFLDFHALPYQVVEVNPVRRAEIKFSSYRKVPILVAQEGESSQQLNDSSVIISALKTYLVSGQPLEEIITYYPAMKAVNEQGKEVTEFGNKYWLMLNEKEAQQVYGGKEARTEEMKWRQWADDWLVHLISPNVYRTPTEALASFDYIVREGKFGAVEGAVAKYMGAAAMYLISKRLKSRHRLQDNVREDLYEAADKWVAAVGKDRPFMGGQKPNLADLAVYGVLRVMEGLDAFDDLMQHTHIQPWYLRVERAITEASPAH

[14] = Inhibition of mPGES-1 in guinea pig whole blood assessed as inhibition of LPS-induced PGE2 production after overnight incubation; type: tissue-based; details: Cavia porcellus

IC50 (Prostaglandin E synthase [1]): 154 nM
remaining at 1 h [2]: 87%
IC50 (Prostaglandin E synthase [3]): 5 nM
inhibition [4]: 0.67%
inhibition [5]: 4.87%
remaining at 1 h [6]: 91%
IC50 (Prostaglandin E synthase [7]): 376 nM
inhibition [8]: 18.7%
Activity [9]: 186%
inhibition [10]: 12.1%
Tmax [11]: 24 h
Cmax [12]: 72 ng/mL
inhibition [13]: 0.02%
IC50 [14]: 161 nM
SMILES: CC(C)C(=O)NCc1ccc(Cl)c(-c2nc3cc(-c4ccc(C(F)(F)F)cc4)ncc3c(=O)[nH]2)c1
